Test results reported in patent US6083940A, “Method and composition for effecting contraception in a mammalian male” (SRI International, priority 1998, dated 2000).
“Also recorded” adds a separate entry of the source.

Tests used:
[1] = system: rat ventral prostate explant cultures (prostatein C3 mRNA); experiment: Measurement of Prostatein C3 mRNA in rat ventral prostate explant culture; conditions: dihydrotestosterone 25 nM alone
Source text: Testosterone was used as a control. […] Addition of androgens to the medium of rat prostate explant cultures maintains the mRNA for C3 subunit of prostatein, and measurement of either prostatein or its C3 subunit mRNA serves as a sensitive, androgen-responsive marker for the explant system.

[2] = system: 22 day old castrated male rats, seminal vesicle and ventral prostate; experiment: standard Hershberger androgenic assay (agonist androgenic activity); assay type: in vivo, rat; conditions: for effect of drug dosage on prostate weight (FIG. 1): increasing dose, in words
[3] = target: T1, Rat Prostate Androgen Receptor (Rattus norvegicus, UniProt P15207); experiment: Rat Prostate Androgen Receptor Competition Assay; assay type: binding; conditions: for Relative Binding Affinity: 5α-DHT set at 100, conc. of 5αDHT at 50% binding inhibition/conc. competitor at 50% binding inhibition × 100; for Relative androgen receptor binding affinity: Table 3, repeats the values of Table 1
T1 construct: from tissue; host or cells: prostate cytosol (100,000×g supernatant) of gonadectomized male rats
T1 sequence (P15207 1-902): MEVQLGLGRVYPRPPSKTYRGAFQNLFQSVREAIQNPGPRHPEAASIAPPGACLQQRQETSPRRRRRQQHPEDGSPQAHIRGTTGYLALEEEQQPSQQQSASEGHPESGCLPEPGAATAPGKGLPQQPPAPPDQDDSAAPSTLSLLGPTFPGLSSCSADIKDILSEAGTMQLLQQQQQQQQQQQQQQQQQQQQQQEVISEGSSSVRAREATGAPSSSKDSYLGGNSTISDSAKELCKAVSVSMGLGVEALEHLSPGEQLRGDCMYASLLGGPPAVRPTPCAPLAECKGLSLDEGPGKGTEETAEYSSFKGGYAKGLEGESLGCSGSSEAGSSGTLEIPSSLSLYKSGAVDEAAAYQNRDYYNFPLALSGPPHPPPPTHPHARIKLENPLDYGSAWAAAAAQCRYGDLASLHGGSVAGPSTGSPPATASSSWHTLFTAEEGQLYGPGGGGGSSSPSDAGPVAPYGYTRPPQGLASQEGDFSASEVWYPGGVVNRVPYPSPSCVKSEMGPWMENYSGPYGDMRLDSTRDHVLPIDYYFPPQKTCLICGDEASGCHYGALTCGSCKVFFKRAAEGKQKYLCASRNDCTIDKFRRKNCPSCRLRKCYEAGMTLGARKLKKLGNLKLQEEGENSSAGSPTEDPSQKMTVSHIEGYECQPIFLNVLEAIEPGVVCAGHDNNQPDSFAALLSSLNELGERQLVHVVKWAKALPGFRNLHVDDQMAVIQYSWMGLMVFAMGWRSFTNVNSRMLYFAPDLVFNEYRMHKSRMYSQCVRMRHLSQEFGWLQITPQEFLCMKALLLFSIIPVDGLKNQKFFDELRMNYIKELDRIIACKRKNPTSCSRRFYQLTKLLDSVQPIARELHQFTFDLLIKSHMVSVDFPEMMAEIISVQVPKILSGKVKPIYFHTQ
Procedure: Male rats were gonadectomized 20-22 hours before killing. The animals were killed by decapitation and exsanguination. Prostates were kept on ice immediately after removal from the animals. After trimming off the fats, prostates were minced and homogenized in 3 volumes of Tris-HCl buffer (0.02 M, pH 7.4 containing 1.5 mM EDTA and 10% glycerol). The homogenate was centrifuged at 10,000×g for 10 minutes, and the resulting supernatant was centrifuged again at 100,000×g for 60 minutes. The final supernatant contained the androgen-binding receptor.
The mixture was brought up to 1.0 mL with Tris-HCl buffer used for homogenizing the tissue. The mixture was then incubated at 4° C. for 4 hr., with occasional shaking. At the end of incubation, the receptor-bound androgen was isolated by ammonium sulfate precipitation.
A 70% saturated ammonium sulfate solution was prepared and its pH is adjusted to 7.4 with aqueous NH3. To 1.0 mL of the labeled cytosol, 1.0 mL of the 70% saturated ammonium sulfate was added dropwise with gentle mixing. The sample was let stand at 0-4° C. for 35 minutes, then centrifuged at 10,000×g for 20 minutes. The precipitate was resuspended in 1.0 mL of the above-mentioned Tris-HCl buffer containing 2 mg of bovine albumin. The androgen-receptor complex was immediately reprecipitated by addition of equal volumes of 70% saturated ammonium sulfate. The sample was allowed to stand at 0-4° C. for another 45 minutes, then centrifuged again as outlined above. The supernatant was decanted and the walls of the tubes thoroughly dried with filter paper. The final precipitated protein was resuspended in 1.0 mL of the same buffer and then transferred quantitatively into a counting vial containing 10 mL of Scintisol for counting.

[4] = system: SEX ACCESSORY GLANDS AND TESTES OF 22-DAY OLD CASTRATED MALE RATS; experiment: Inhibition of Prostate Growth in Castrated Male Rats (testosterone supplemented); assay type: in vivo, rat; conditions: for In Vivo Percent Inhibition of Ventral Prostate Weight: castrated male rats given supplemental testosterone; for Final BW / Seminal Vesicle weight / Ventral Prostate weight: ten days, mean ± SE
Procedure: Male rats weighing 36 to 38 grams were castrated at the age of 22 days. […] The castrated rats were treated with the steroids once daily for ten consecutive days. On the tenth day following treatment, the rats were sacrificed and autopsied and final seminal vesicle weights and ventral prostate weights determined.

[5] = doses of 0.8 mg, 1.6 mg, and 3.2 mg, versus vehicle alone
[6] = compound 30.0 mg/day + testosterone propionate 0.6 mg/day
[7] = testosterone propionate 0.6 mg/day alone, N=5

C[C@]12CCC(=O)C[C@@H]1CC[C@@H]1[C@@H]2CC[C@]2(C)[C@@H](O)CC[C@@H]12 [5α-Dihydrotestosterone, reference compound]
C3/28s × 100, percent of dihydrotestosterone ([1]; N=3): 100%
C3 m-RNA, percent of dihydrotestosterone ([1]; N=3): 100%
C3 m-RNA ([1]; N=3, 30 disks/explant, printed spread ± 32,675): 219,371
C3/28s × 100 ([1]; N=3, printed spread ± 26.9): 148.9

CCC[C@]1(O)CC[C@H]2[C@@H]3CCC4=CC(=O)CCC4=C3CC[C@@]21C [Compound II-1, 17α-Propylestra-4,9-dien-17β-ol-3-one]
dose response curves for androgenic activity ([2]; 22 day old castrated male rats): Very flat dose response curves
agonist androgenic activity at the therapeutically effective antiandrogenic dose ([2]; by extrapolation to 30.0 mg, castrated male rat): essentially devoid of agonist androgenic activity
seminal vesicle weight (agonist androgenic activity) [2, 5]: equal to the vehicle alone controls
ventral prostate weight (agonist androgenic activity) [2, 5]: equal to the vehicle alone controls
effect of drug dosage on prostate weight (FIG. 1) [2]: fairly steady prostate weight, even at higher doses
Relative Binding Affinity [3]: 5.7
Relative androgen receptor binding affinity [3]: 5.7
affinity for the rat prostate androgen receptor compared with other known antiandrogens ([3]; in words): higher affinity for the androgen rat prostate receptor than all of the other known antiandrogens except cyproterone acetate; also recorded: higher affinity for the rat ventral prostate androgen receptor than the steroidal antiandrogen zanoterone (WIN®49,596); also recorded: higher affinity to the androgen receptor than three other nonsteroidal antiandrogen receptor antagonists flutamide, which is available as an antiandrogen in the United States, nilutamide, developed by Roussel in France, and Casodex® (ICI 176,334)
In Vivo Percent Inhibition of Ventral Prostate Weight [4]: 18.8 ± 5.74%
Final BW [4, 6]: 88 ± 5 g
Seminal Vesicle weight [4, 6]: 28.2 ± 2.8 mg
Ventral Prostate weight [4, 6]: 45.3 ± 2.5 mg
inhibition of prostate growth stimulated by exogenous testosterone ([4]; male castrated rats, in words): inhibit prostate growth stimulated by exogenous testosterone

CC(=O)O[C@]1(C(C)=O)CC[C@H]2[C@@H]3C=C(Cl)C4=CC(=O)[C@@H]5C[C@@H]5[C@]4(C)[C@H]3CC[C@@]21C [Cyproterone acetate, reference compound]
In Vivo Percent Inhibition of Ventral Prostate Weight [4]: 54.3 ± 8.34%
Seminal Vesicle weight [4, 6]: 9.8 ± 0.8 mg
Ventral Prostate weight [4, 6]: 30.0 ± 3.6 mg

CC(C)(O)C(=O)Nc1ccc([N+](=O)[O-])c(C(F)(F)F)c1 [Hydroxyflutamide, reference compound]
Relative Binding Affinity [3]: 2.6
Relative androgen receptor binding affinity [3]: 2.6

CCC(=O)O[C@H]1CC[C@H]2[C@@H]3CCC4=CC(=O)CC[C@]4(C)[C@H]3CC[C@]12C [Testosterone propionate, reference compound]
Final BW [4, 7]: 86 ± 4 g
Seminal Vesicle weight [4, 7]: 26.6 ± 34 mg
Ventral Prostate weight [4, 7]: 53.4 ± 5.8 mg

C#C[C@]1(O)CC[C@H]2[C@@H]3CC[C@H]4Cc5nn(S(C)(=O)=O)cc5C[C@]4(C)[C@H]3CC[C@@]21C [Win 49,596, zanoterone, reference compound]
Relative Binding Affinity [3]: 2.2
Relative androgen receptor binding affinity [3]: 2.2

C[C@]12CC[C@H]3[C@@H](CCC4=CC(=O)CC[C@@]43C)[C@@H]1CC[C@@H]2O [testosterone, reference compound]
effect of drug dosage on prostate weight (FIG. 1) [2]: proportionate rise in prostate weight with increasing dose
